Drawing on ChEMBL document CHEMBL1201862, “PubChem BioAssay data set” (2004), this text covers IC50, EC50 and AC50 for 27 compounds.

Active and inactive are the calls of the source. A value given as a limit tells only on which side of the number the result lay.

In experiment [1] the target is Large T antigen (Simian virus 40, UniProt P03070). The class given is functional, Betapolyomavirus macacae.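 Note: Confirmatory-stage PubChem screen for compounds that inhibit SV40 T antigen.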
Experiment [2] addresses T1, Rac GTPase-activating protein 1 (Homo sapiens, UniProt Q9H0H5).
T1 sequence (Q9H0H5 whole entry): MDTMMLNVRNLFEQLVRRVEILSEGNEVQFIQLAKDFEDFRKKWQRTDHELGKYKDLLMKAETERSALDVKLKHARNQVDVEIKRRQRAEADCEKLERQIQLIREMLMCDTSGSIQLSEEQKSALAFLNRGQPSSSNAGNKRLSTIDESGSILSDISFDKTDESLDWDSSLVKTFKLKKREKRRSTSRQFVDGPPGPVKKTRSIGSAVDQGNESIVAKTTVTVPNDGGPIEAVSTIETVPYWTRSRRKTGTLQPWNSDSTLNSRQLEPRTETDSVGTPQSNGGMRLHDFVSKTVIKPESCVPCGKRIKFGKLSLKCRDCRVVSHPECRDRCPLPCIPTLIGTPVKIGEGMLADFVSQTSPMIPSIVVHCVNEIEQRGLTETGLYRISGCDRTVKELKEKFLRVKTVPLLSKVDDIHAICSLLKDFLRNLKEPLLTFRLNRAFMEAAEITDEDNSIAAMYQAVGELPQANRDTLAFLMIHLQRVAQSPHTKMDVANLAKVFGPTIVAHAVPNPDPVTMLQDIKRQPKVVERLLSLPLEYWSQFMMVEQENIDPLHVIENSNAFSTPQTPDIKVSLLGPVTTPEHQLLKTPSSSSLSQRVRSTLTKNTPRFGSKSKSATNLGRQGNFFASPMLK
Put plainly: MgcRacGAP GTPase-activating activity inhibitors, confirmation, biochemical, ADP Hunter fluorescence, primary and confirmatory (AID 624330). The class given is functional.

Experiment [3] is described as follows: NIH-3T3 fibroblast cytotoxicity, dose response, cytotoxicity control, cell-based, fluorescence, Alamar Blue, secondary assay (AID 2327).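 Note: NIH-3T3 mouse fibroblasts cultured with fluconazole at 8 µg/mL.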 The class given is functional.
A short description of experiment [4]: C. albicans growth with fluconazole, confirmation, fluorescence, retest (AID 2467). The class given is functional, cell-based.
Experiment [5] has as its target T2, Protein skinhead-1 (Caenorhabditis elegans, UniProt P34707).
T2 sequence (P34707 whole entry): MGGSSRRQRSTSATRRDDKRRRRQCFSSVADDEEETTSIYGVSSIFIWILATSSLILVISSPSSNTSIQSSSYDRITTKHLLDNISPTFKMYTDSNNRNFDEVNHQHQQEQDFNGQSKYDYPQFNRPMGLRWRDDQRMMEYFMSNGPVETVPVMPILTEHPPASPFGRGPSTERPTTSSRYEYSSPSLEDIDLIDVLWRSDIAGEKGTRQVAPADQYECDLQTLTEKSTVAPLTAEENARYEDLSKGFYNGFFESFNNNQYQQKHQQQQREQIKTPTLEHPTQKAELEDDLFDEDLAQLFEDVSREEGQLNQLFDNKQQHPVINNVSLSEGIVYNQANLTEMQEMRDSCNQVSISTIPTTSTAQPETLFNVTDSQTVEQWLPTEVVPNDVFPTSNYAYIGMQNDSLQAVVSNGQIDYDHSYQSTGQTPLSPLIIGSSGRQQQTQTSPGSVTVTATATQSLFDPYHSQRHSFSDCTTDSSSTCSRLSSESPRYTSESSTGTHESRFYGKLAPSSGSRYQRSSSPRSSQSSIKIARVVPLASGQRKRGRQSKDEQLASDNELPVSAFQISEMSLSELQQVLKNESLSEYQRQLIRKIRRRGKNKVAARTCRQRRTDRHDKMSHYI
The class given is functional.

The target of experiment [6] is T3, Polyadenylate-binding protein 1 (Homo sapiens, UniProt P11940). Kind of experiment: PABP1 MLLE–PAM2 interaction inhibitors, dose response, miRNA deadenylation inhibitor project, biochemical, fluorescence polarization, Cy5-PAM2 peptide, secondary (AID 602260). Particulars: read-out: IC50_Mean. Type of experiment: functional. In general terms: In fluorescence polarisation assays a small probe gives low polarisation when free and higher when bound to something large.

Experiment [7] deals with T3, Polyadenylate-binding protein 1. Kind of experiment: PABP1 MLLE–PAM2 binding inhibitor potency, dose response, biochemical, fluorescence polarization, FITC-PAM2 peptide (AID 602259). Type of experiment: functional. Particulars: read-out: IC50_Mean.
Experiment [8] has as its target T4, Corticotropin-releasing factor receptor 2/Corticotropin-releasing factor-binding protein (Homo sapiens, UniProt P24387+Q13324).
T4 sequence (Q13324 whole entry): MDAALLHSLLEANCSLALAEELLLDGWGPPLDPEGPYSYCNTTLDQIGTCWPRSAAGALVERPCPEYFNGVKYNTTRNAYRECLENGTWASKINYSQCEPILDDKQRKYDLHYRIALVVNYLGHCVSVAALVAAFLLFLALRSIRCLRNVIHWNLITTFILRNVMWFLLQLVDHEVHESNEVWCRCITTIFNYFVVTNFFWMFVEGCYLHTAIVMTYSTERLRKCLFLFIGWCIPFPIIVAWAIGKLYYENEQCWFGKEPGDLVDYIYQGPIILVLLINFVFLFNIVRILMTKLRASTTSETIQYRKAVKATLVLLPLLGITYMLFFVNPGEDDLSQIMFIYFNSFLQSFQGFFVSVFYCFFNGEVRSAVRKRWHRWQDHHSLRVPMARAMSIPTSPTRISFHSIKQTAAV
T4 sequence (P24387 whole entry): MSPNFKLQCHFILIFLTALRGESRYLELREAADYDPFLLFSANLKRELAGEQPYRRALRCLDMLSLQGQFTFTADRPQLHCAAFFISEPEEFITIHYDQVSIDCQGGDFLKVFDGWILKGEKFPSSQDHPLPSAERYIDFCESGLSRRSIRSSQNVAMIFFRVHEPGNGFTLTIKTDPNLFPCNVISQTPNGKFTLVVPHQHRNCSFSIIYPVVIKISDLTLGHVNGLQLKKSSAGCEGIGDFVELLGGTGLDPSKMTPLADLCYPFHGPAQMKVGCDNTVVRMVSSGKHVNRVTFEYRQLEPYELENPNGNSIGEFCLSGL
Kind of experiment: Dose Response confirmation of uHTS hits for small molecule antagonists of the CRF-binding protein and CRF-R2 receptor complex. The class given is functional. Particulars: read-out: IC50_Mean.

In experiment [9] the target is T4, Corticotropin-releasing factor receptor 2/Corticotropin-releasing factor-binding protein. Put plainly: activators of CRF receptor 2 with binding protein – uHTS hits, confirmation (AID 602473). The class given is functional. Particulars: read-out: EC50_Mean.
Experiment [10] concerns INS1. Put plainly: beta cell apoptosis inhibitors, cytokine rescue, dose response, luminescence, retest (AID 449756).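 Note: cell death triggered by IL-1 beta plus TNF-alpha plus IFN-gamma mixture; protective hits raise ATP signal compared with cytokine alone wells.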 The class given is functional, cell-based. The settings on record: Rattus norvegicus, INS1.

Chain of Large T antigen (P03070 whole entry): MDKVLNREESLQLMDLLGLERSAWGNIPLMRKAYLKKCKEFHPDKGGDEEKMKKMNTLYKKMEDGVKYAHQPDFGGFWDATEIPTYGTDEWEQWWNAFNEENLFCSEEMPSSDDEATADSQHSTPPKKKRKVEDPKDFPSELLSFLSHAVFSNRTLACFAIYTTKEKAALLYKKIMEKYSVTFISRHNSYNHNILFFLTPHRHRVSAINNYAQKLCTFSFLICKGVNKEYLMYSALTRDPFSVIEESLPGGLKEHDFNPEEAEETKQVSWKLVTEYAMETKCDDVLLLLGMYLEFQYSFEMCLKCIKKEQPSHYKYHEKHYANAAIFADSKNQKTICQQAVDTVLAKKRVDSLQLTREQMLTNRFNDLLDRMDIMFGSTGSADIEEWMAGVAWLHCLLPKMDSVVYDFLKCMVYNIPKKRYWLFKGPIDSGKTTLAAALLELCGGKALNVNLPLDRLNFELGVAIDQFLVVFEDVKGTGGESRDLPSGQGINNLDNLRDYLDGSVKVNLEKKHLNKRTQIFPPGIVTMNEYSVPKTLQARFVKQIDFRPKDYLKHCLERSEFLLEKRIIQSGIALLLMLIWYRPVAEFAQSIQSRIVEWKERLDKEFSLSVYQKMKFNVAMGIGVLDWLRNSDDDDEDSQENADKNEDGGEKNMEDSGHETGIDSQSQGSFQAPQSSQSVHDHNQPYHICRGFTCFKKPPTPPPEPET
T3 sequence (P11940 whole entry): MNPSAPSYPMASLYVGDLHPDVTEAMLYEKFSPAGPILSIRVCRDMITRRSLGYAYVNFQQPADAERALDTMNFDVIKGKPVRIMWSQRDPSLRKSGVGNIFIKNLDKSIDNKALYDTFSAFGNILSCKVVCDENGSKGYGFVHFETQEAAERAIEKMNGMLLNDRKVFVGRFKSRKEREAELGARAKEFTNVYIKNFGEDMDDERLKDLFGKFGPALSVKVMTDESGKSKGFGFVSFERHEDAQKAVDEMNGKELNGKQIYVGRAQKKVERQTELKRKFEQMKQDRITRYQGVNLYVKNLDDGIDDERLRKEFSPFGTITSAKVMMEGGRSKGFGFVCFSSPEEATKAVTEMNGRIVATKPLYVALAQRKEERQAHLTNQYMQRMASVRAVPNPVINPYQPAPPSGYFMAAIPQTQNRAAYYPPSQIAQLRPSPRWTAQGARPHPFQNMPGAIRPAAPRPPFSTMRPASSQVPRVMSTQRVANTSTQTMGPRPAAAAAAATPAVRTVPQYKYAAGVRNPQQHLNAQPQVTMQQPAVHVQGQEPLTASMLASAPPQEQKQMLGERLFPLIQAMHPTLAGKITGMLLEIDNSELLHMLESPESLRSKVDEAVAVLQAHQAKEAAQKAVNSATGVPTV

In the case of `Oc1ccc(/N=C/c2cc(Br)c(N3CCOCC3)o2)cc1`, the IC50 in experiment [1] was 21.7 µM (active); in [2], 42 µM (active).
In the case of `O=C(C[n+]1ccccc1)NN=Cc1ccc(O)cc1`, the IC50 in experiment [1] was 11.3 µM (active); in [2], 75 µM (active).
`O=S1(=O)N=C(Nc2ccc(N3CCOCC3)cc2)c2ccccc21`: the EC50 in [3] was > 160 µM (inactive); in experiment [4], > 38 µM (not active).
Take `Cc1cs/c(=N\N=C\c2ccc(O)cc2)n1Cc1ccco1`: the IC50 was 25.5 µM (active) in [1] and 28.8 µM (active) in [2].
Turning to `O=C(Nc1ccc(N=Nc2ccccc2)c(NC(=O)C2CCCO2)c1)C1CCCO1` (stereo unspecified), the EC50 in [3] is > 160 µM (inactive); in [4], > 38 µM (not active).
`CN(C)c1ccc(-c2nc3cnccn3c2Nc2ccc3c(c2)OCCO3)cc1`: the IC50 in experiment [1] was 12 µM (active).
With `COc1ccc(S(=O)(=O)Nc2ccc(S(=O)(=O)Nc3ccc(F)cc3)cc2)cc1C`, in [5], the IC50 is > 100 µM (inactive).
Turning to `CC(=O)O[C@H]1[C@@H](O)[C@H](O)[C@H](Oc2c(O)c(C)c3c4c2[C@@H](C)CC[C@@H]4[C@@H](C)C[C@@H]3C=C(C)C)O[C@H]1C`, the IC50 in experiment [5] is > 100 µM (inactive).
The same measure, in the same setting: the value for `C=CCNc1nc(-c2ccc([N+](=O)[O-])cc2)cs1` was 23.7 µM (active).
For the compound `COc1ccc(Cl)cc1NC(=O)CN(C(=O)c1ccco1)C1CCCCC1`, the IC50 in [6] and in experiment [7] was > 66 µM (inactive) throughout.
As to `Cc1c(NC(=S)NC(=O)c2cc3ccccc3o2)cccc1C(=O)O`, the IC50 in [6] and in experiment [7] was > 66 µM (inactive) in each case.
As to `Cc1c(C(=O)Oc2ccc(-c3cnc4ccccc4n3)cc2)cccc1[N+](=O)[O-]`, the IC50 in [1] is 58.2 µM (active).
As for `O=C(c1ccc(S(=O)(=O)NCc2ccco2)cc1)N1CCN(c2ccc(F)cc2)CC1`, the IC50 in [5] is > 100 µM (inactive).
With `CCNC(=O)c1sc(=S)n(-c2ccc(C)cc2)c1N`, the IC50 in experiment [6] and in experiment [7] was > 66 µM (inactive) throughout.
As to `O=C(COc1ccc2c(c1)CCC2)N1CCN(c2cccc(C(F)(F)F)c2)CC1`, the figures for the EC50 in experiment [3] and in experiment [4] were > 160 µM (inactive) and > 38 µM (not active), respectively.
As to `C#CCNC(=O)C1=C[C@@H](c2cn(C(C)=O)c3ccccc23)C[C@@H](OCCCCO)O1`, the IC50 in [5] is > 100 µM (inactive).
Still for that read-out and setting: then `CS(=O)(=O)N1N=C(c2cccs2)CC1c1ccccc1O` (stereo unspecified), with > 100 µM (inactive).
For `COC(=O)/C=C1\SC(NC(=O)c2ccc(C)cc2)=NC1=O`, the IC50 in experiment [6] and in [7] was > 66 µM (inactive) each time.
For the compound `Cn1nnc(NC(=S)NC(=O)c2ccc3ccccc3c2)n1`, the IC50 in [6] and in [7] was > 66 µM (inactive) in each case.
In the case of `CCN1C(=O)/C(=C2\Sc3ccccc3N2CC)OC1=S`, the IC50 in experiment [6] and in [7] was > 66 µM (inactive) each time.
As for `O=Cc1ccc(OC(=O)c2cc(Cl)nc3ccccc23)cc1`, the IC50 in [6] and in [7] was > 66 µM (inactive) each time.
Turning to `O=c1cc(-c2ccc(F)cc2)oc2ccccc12`, the results for the IC50 in [8] and in [5] were > 47.1 µM (inactive) and 16.2 µM (active), respectively. Moreover, the EC50 in experiment [9] is > 53 µM (inactive).
Regarding `Cc1ccc(CNC(=O)CSc2nccn(-c3ccc(C)c(F)c3)c2=O)cc1`, the IC50 in experiment [6] and in [7] was > 66 µM (inactive) each time.
Regarding `CCOc1ccc2c(c1)n([O-])c1c([n+]2=O)CCCC1`, the IC50 in [6] and in [7] was > 66 µM (inactive) each time.
Consider `O=C(Nc1ccc2oc(-c3cccnc3)nc2c1)c1ccc(Br)o1`, for which the IC50 in experiment [5] is > 100 µM (inactive).
One may read the AC50 as the midpoint of the concentration-response curve, whichever way the signal moves. Consider `Cc1ccc(-[n+]2c(-c3ccccc3)cn3c2CCC3)cc1`, for which the EC50 was > 150 µM (inconclusive) in experiment [3] and > 38 µM (not active) in experiment [4]. In experiment [10], the concentration at half-maximal activity (AC50) was 2.83 µM (active).
Turning to `CC1=NN(c2ccccc2)C(=O)/C1=C\C=C1\N(C)c2ccccc2C1(C)C`, the IC50 in experiment [5] is 42.5 µM (active).
